Columns and labels:
[1] = system: MRC-5 cell line (diploid human embryonic lung fibroblast); experiment: Cytotoxicity on MRC-5 cells; type: cell-based
Excerpt: [table] An important part of the screen is the evaluation of all compounds for cytotoxicity using the diploid human embryonic lung fibroblast MRC-5 cell line (Figure 2). Further evaluation of cytotoxicity also takes advantage of the assays for intracellular protozoan parasites, as in the case of L. infantum and T. cruzi, which include murine peritoneal macrophage host cells and MRC-5SV2 human lung fibroblast cells, respectively, in the culture system.

[2] = system: Plasmodium falciparum K1 strain; experiment: Anti-Plasmodium activity assay (Malstat); type: cell-based; settings: P. falciparum K1, 72 h
Procedure: (§1) The compound set was tested against the following parasites: intra-erythrocytic forms in human red blood cells of P. falciparum K1 strain (malaria), [16], [32], [33], [35], bloodstream forms of T. brucei Squib 427 strain (human African trypanosomiasis, HAT), [31], [32], [34], intracellular amastigotes of T. cruzi Tulahuen CL2, beta- galactosidase strain (Chagas' Disease), [32]–[35], intracellular amastigotes of L. infantum MHOM/MA(BE)/67 (leishmaniasis), [32]–[36], larval and/or adult worms of S. mansoni Puerto Rican strain (schistosomiasis), [31], [37], microfilariae of B. malayi (lymphatic filariasis), [30] and microfilariae of O. ochengi or O. lienalis (onchocerciasis), [30]. It should be noted that the human pathogen for onchocerciasis is Onchocerca volvulus, but due to lack of a suitable in vitro assay or animal models for this pathogen, O. ochengi and lienalis, which are both animal pathogens, are used in the primary and secondary assays, [30].

[3] = system: Trypanosoma cruzi, Tulahuen CL2 strain; experiment: Antitrypanosomal activity assay, T. cruzi in MRC-5 cells; type: cell-based; settings: T. cruzi Tulahuen CL2 in MRC-5 cells, 7 days
Procedure: as §1
171 of the 744 actives passed the initial criterion of IC50<1 µg/ml for T. cruzi Tulahuen CL2, beta galactosidase strain maintained on MRC-5SV2 cells in MEM medium (MRC-5 cell/parasite inoculum: 4.10^3 cells/well+4.10^4 parasites/well), supplemented with […] L-glutamine, 16.5 mM NaHCO3 and 5% heat inactivated fetal calf serum. […] Of these, 109 were eliminated [structures #1–6] for poor selectivity versus mammalian cells (SI<50) and an additional 11 due to undesirable chemical attributes. The remaining 51 compounds were sorted into 10 series (45 compounds) and 6 singletons [structures # 21, 22]. Two of these series with excellent potency against T. cruzi, limited activity against other protozoa and SI values >50 (not shown), have been transferred to DNDi for further evaluation.

[4] = system: Trypanosoma brucei brucei Squib-427 strain; experiment: Antitrypanosomal activity assay, T. brucei (resazurin); type: cell-based; settings: T. brucei Squib 427 bloodstream forms, 72 h
Procedure: as §1

[5] = system: Schistosoma mansoni adult worms; experiment: Anti-Schistosoma activity assay (adult worm motility); type: cell-based; settings: S. mansoni adult worms; 12.5 µM (method: 10 µg/ml or 12.5 µM)
Procedure: as §1
A subset of 9478 of the 10,000 compound collection was tested against the Puerto Rican strain of S. mansoni. 6144 of these were tested in a primary larval assay followed by the ex-vivo adult secondary screen. The remainder was screened only in the adult assay. […] The 65 compounds were sorted by chemical attractiveness, potency against adult schistosomes in culture, selectivity against other parasites, and toxicity to mammalian cells in culture. Based on this analysis, 5 series encompassing 13 compounds were chosen for advancement through the African Network for Drug and Diagnostic Innovation (ANDI) and other PDPs. Representative structures [structures # 13, 27, 28] are shown (Table S1). These compounds are unburdened by obvious toxic moieties, have acceptable compliance with the Lipinski rules, are selectively active against schistosomes and are not overtly toxic to mammalian cells. It has unfortunately not been possible to titrate all of these hits in culture; of about 50% for which such data are available, none has an IC50<2 µg/ml (which is the initial potency criteria).

[6] = system: Brugia malayi microfilariae; experiment: Anti-Brugia malayi microfilariae motility assay; type: cell-based; settings: B. malayi microfilariae; 12.5 µM
Procedure: as §1
As result of logistics issues attributed to lost shipments of some compounds, only 6160 molecules of the 10,000 compound set were tested, at a uniform molarity, against B. malayi, including 6063 against microfilariae and 756 against adult worms (these sets overlap). […] Greatest priority was given to compounds with activity against adult worms, as no macrofilaricide is available for use in control campaigns and the activity of ivermectin as a microfilaricidal agent is unlikely to be bettered in a new series. Of the test set, 53 compounds met the activity criterion for microfilariae (100% motility reduction) and an additional 58 inhibited adult worm motility ≥75% at 10 µM. These were titrated to determine an IC50 value to support prioritization. Following cytotoxicity triage [structures # 1, 4, 6], eight compounds met the activity criterion for adult worms (i.e., 100% inhibition of adult worm motility), four of which were also active against microfilariae [structures # 14, 29, 30, 32]. […] Of these, the most interesting was TDR76699 [structure # 29]; this compound has very good activity against adult worms (IC50 = 0.1 µg/ml) and is also active against microfilariae (IC50 = 0.7 µg/ml). None of the other compounds tested against adult parasites had IC50 values ≤0.5 µg/ml, a threshold which would reduce concerns about specificity. However, a few series [structures # 31, 33, 34], appear interesting for future medicinal chemistry projects.

[7] = system: Onchocerca (lienalis or ochengi) microfilariae; experiment: Anti-Onchocerca microfilariae motility assay; type: cell-based, Onchocerca lienalis or O. ochengi
Procedure: as §1
4240 compound s were screened against O. ochengi at the University of Buea in Cameroon, while a subset of […] compounds was successfully screened in UK by the Northwick Park Institute for Medical Research against O. lienalis, at a uniform molarity. […] After removing molecules that were toxic to mammalian cells (IC50<5 µg/ml), 292 molecules remained for further evaluation. […] From the latter sub-set, […] distinct chemical series and one singleton [structure # 35] were active against both microfilaria and adults. One series [structures # 2, 3] was deemed not interesting due to lack of selectivity against mammalian cells. The remaining series is being transferred to ANDI for further progression as part of a new collaboration.

Compound | CYT IC50 [1] | MAL IC50 [2] | CHA IC50 [3] | HAT IC50 [4] | SCH % Motility Reduction at 12.5µM [5] | LF/MF % Motility Reduction at 12.5µM [6] | ONC/MF % Motility Reduction at 12.5µM [7]
Cc1c(C(=O)N2CCC(C)CC2)sc2nc(-c3ccc(F)cc3)cn12 [TDR77657] | >10.72 µg/mL | >10.72 µg/mL | >10.72 µg/mL | 0.42 µg/mL | 0% | 0% | 0%
O=S(=O)(NCC(c1cccnc1)N1CCN(Cc2ccccc2)CC1)c1ccc(Cl)cc1 (stereo not shown) [TDR78023] | >14.13 µg/mL | 2.18 µg/mL | 0.63 µg/mL | >14.13 µg/mL | 0% |  | 0%
C=CCN(CC=C)S(=O)(=O)c1ccc(C(=O)Nc2nc3ccc(C(C)C)cc3s2)cc1 [TDR78794] | >10.99 µg/mL | >10.99 µg/mL | 4.48 µg/mL | >10.99 µg/mL | 100% |  | 0%
O=C(CSc1ccc2nnc(-c3ccccn3)n2n1)NCC1CCCO1 (stereo not shown) [TDR78834] | >12.1 µg/mL | 3.15 µg/mL | 5.2 µg/mL | 3.3 µg/mL | 0% |  | 0%
COc1ccc(N2CCCS2(=O)=O)cc1NC(=O)c1cc(Cl)ccc1OC [TDR79456] | >12.3 µg/mL | >12.3 µg/mL | 5.0 µg/mL | 4.3 µg/mL | 4% |  | 13.3%
O=C(Nc1nc(-c2ccncc2)cs1)C1CCCN(S(=O)(=O)c2ccc(Cl)s2)C1 (stereo not shown) [TDR80165] | >14.07 µg/mL | 6.68 µg/mL | 0.24 µg/mL | 4.5 µg/mL | 0% |  | 50%
O=C(CN1CCC(C(=O)Nc2ccc(Oc3ccccc3)cc2)CC1)Nc1ccc(F)cc1 [TDR80731] | >13.43 µg/mL | >13.43 µg/mL | >13.43 µg/mL | >13.43 µg/mL | 0% |  | 0%
Cc1ccc(N2CCn3c2nnc(C(=O)NCCC2=CCCCC2)c3=O)cc1 [TDR81281] | >11.38 µg/mL | 0.15 µg/mL | >11.38 µg/mL | >11.38 µg/mL | 0% |  | 0%
CCOc1ccc2nc(N(Cc3cccnc3)C(=O)c3ccc(Cl)s3)sc2c1 [TDR81636] | >12.2 µg/mL | 3.55 µg/mL | 0.66 µg/mL | 3.52 µg/mL | 0% | 0% | 11%
CCCn1/c(=N/C(=O)C2=COCCO2)sc2c(C)ccc(OC)c21 [TDR82272] | >10.45 µg/mL | 3.18 µg/mL | 0.89 µg/mL | >10.45 µg/mL | 0% | 0% | 20%
O=C(Cc1ccc(F)cc1)Nc1nc(-c2ccccn2)cs1 [TDR82963] | >9.4 µg/mL | 2.97 µg/mL | 0.33 µg/mL | 0.31 µg/mL | 0% | 0% | 23%
COc1ccc(SCC(=O)Nc2nc(-c3ccccn3)cs2)cc1 [TDR83845] | >10.72 µg/mL | >10.72 µg/mL | 0.36 µg/mL | 0.35 µg/mL | 0% | 0% | 86%
CSc1ccc2nc(N(Cc3cccnc3)C(=O)c3ccc(C(C)(C)C)cc3)sc2c1 [TDR84420] | 7.16 µg/mL | 0.15 µg/mL | 0.56 µg/mL | >13.43 µg/mL | 0% | 0% | 25%
CS(=O)(=O)c1ccc2nc(N(Cc3cccnc3)C(=O)c3ccc4ccccc4c3)sc2c1 [TDR84431] | >14.21 µg/mL | >14.21 µg/mL | 0.23 µg/mL | >14.21 µg/mL | 0% | 0% | 0%
CSc1cccc(C(=O)N(Cc2cccnc2)c2nc3ccc(S(C)(=O)=O)cc3s2)c1 [TDR84433] | >14.09 µg/mL | 8.28 µg/mL | 0.38 µg/mL | >14.09 µg/mL | 0% | 0% | 0%
O=C(Cc1csc(NC(=O)C2CCC(=O)N2)n1)NCc1ccccn1 (stereo not shown) [TDR84826] | >10.78 µg/mL | >10.78 µg/mL | >10.78 µg/mL | >10.78 µg/mL | 100% | 20% | 50%
CC(C)(C)n1ncc2c(=O)n(CCC(=O)NCc3ccccc3Cl)cnc21 [TDR84851] | >11.64 µg/mL | >11.64 µg/mL | >11.64 µg/mL | >11.64 µg/mL | 100% | 20% | 0%
O=S(=O)(c1cccnc1)N1CCN(c2ccc(-c3cccs3)nn2)CC1 [TDR85115] | >11.6 µg/mL | >11.6 µg/mL | >11.6 µg/mL | >11.6 µg/mL | 0% | 50% | 0%
Cc1ccc(C(=O)Nc2nnc(Cc3cccs3)o2)cc1C [TDR85275] |  |  | 3.01 µg/mL | 0.38 µg/mL | 25% | 50% | 0%

Source: paper PMC3243694, “Integrated Dataset of Screening Hits against Multiple Neglected Disease Pathogens” (PLoS Neglected Tropical Diseases, 2011)
